Common to all, as to format: cell-based
One series concerns UM10B cells. Description: Clonogenic IC50, UM10B.
For the next series, the system named is cells. Description: Cell Titer Blue % cell viable (24 hrs). The note with it: for viability at 15 µM: Conc 15 μM. On the procedure:
The viability of cells upon treatment was assessed by CellTiter-Blue® reagent following the manufacturer's protocol in RKO, UM10B, UM1, MCR5, and UMCC92 cells. Briefly, 10,000 cells were plated in 96-well plate in quadruplets. One day after seeding, cells were treated with a range of concentrations (0.1 to 30 micromolar). […] Only the viable cells convert the redox dye (reszurin) into a fluorescent product (resofurin). The emission of fluorescence (excitation 560 nm) was measured at […]. The IC50 value was calculated as the mean concentration of compounds required to inhibit cell proliferation as measured by the fluorescence at […] by 50 percent compared to the vehicle-treated controls.
(In general: Alamar Blue is a resazurin reagent that responds to reducing activity.)

The next series relates to MCR5 cells. Description: Clonogenic IC50, MCR5. On the procedure:
It was determined if the response to Compound 8C correlates with inhibition of EGF-induced dimerization and degradation of EGFR. For this, PC9-AZR cells were treated for 1 hour with 1 μM Compound 8C and an additional 30 minutes with EGF (30 ng/ml) and 30 minutes with disuccinimidyl suberate (DSS, 150 μM) to cross-link interacting proteins. Lysates were prepared and immunoblotted with anti-EGFR antibodies.
The viability of cells upon treatment was assessed by CellTiter-Blue® reagent following the manufacturer's protocol in RKO, UM10B, UM1, MCR5, and UMCC92 cells. Briefly, 10,000 cells were plated in 96-well plate in quadruplets. One day after seeding, cells were treated with a range of concentrations (0.1 to 30 micromolar). 3-days post-treatment, cells were incubated with the CellTiter-Blue® reagent for 4 hr. Only the viable cells convert the redox dye (reszurin) into a fluorescent product (resofurin). The emission of fluorescence (excitation 560 nm) was measured at […]. The IC50 value was calculated as the mean concentration of compounds required to inhibit cell proliferation as measured by the fluorescence at […] by 50 percent compared to the vehicle-treated controls.

The test system of the next series is RKO cells. Description: Clonogenic IC50, RKO. The following applies: Homo sapiens.

For orientation: IC50 means the concentration that inhibits the measured activity by half. A higher IC50 goes with weaker potency in that assay. By viability is commonly meant a read-out of living cells in per cent, often relative to untreated cells. For `Cc1ccc(C2=NC3(CCCCC3)N=C2SCC(=O)Nc2ccc(F)c(Cl)c2)cc1` [Compound 32], the IC50 turned out to be 4 µM with UM10B cells; 15 µM with MCR5 cells (MCR5, MCR5); 8 µM in the series on RKO cells. In the series on cells (24 h, Conc 30 μM), the viability at 30 µM worked out at 104%.
`CN1CCC2(CC1)N=C(SCC(=O)Nc1ccc(F)c(F)c1)C(c1ccc(F)cc1)=N2` [Compound 27]: the IC50 in the series with UM10B cells stood at 8.8 µM; in the series with MCR5 cells (MCR5, MCR5) it was 4.1 µM; with RKO cells it was 19 µM. In addition, in the series on cells (24 h, Conc 30 μM), the viability at 30 µM was found to be 76%.
`Cc1ccc(C2=NC3(CCN(C)CC3)N=C2SCC(=O)Nc2ccc3c(c2)OCCO3)cc1` [Compound 23]: the IC50 with UM10B cells was determined as 5.3 µM; with MCR5 cells (MCR5, MCR5), 5.4 µM; in the series with RKO cells, 2.2 µM. Further, the viability at 30 µM with cells (24 h, Conc 30 μM) came out at 103%.
With `Cc1ccc(C2=NC3(CCN(C)CC3)N=C2SCC(=O)Nc2ccc3c(c2)OCO3)cc1` [Compound 24], the half-inhibitory concentration (IC50) with UM10B cells was 4.3 µM; with MCR5 cells (MCR5, MCR5), 7.6 µM; in the series with RKO cells it was 5.4 µM. For the same compound, the viability at 30 µM with cells (24 h, Conc 30 μM) was 72%.
Turning to `CN1CCC2(CC1)N=C(SCC(=O)Nc1ccc(F)c(F)c1)C(c1ccc(Br)cc1)=N2` [Compound 29], the half-inhibitory concentration (IC50) in the series with UM10B cells amounted to 0.7 µM; with MCR5 cells (MCR5, MCR5) it was 3.3 µM; in the series on RKO cells, 1.4 µM. In addition, the viability at 30 µM in the series on cells (24 h, Conc 30 μM) was 89%.
In the case of `COc1cc(NC(=O)CSC2=NC3(CCN(C)CC3)N=C2c2ccc(C)cc2)ccc1Cl` [Compound 19], the IC50 in the series with UM10B cells was 2.6 µM; with MCR5 cells (MCR5, MCR5), 4.1 µM; in the series with RKO cells it was 3.1 µM. Also, in the series with cells (24 h, Conc 7.5 μM), the viability at 7.5 µM was 68%.
`CC1(C)N=C(c2ccc(F)cc2)C(=O)N1CC(=O)Nc1ccc(F)c(Cl)c1` [Compound 13]: the IC50 is 6.9 µM in the series with UM10B cells, 335 µM with MCR5 cells (MCR5) and 25.2 µM in the series on RKO cells. For the same compound, the “% Cell viable (24 hrs)” value with cells (Conc 30 μM) came out at 59.4%.
As for `COc1ccc(C2=NC3(CCN(C)CC3)N=C2SCC(=O)Nc2ccc(OC)c(Cl)c2)cc1` [Compound 20], the IC50 in the series on UM10B cells amounted to 4 µM; in the series with MCR5 cells (MCR5, MCR5) it was 2.4 µM; in the series with RKO cells, 1.8 µM. The viability at 15 µM with cells (24 h) amounted to 54%.
Regarding `CN1CCC2(CC1)N=C(SCC(=O)Nc1ccc(F)c(F)c1)C(c1ccc(C(C)(C)C)cc1)=N2` [Compound 28], the IC50 worked out at 1 µM in the series on UM10B cells; 1.3 µM with MCR5 cells (MCR5, MCR5); 6.5 µM with RKO cells. Besides, the viability at 15 µM with cells (24 h) is 15%.
The matching figures for `COc1ccc(NC(=O)CSC2=NC3(CCN(C)CC3)N=C2c2ccc(F)cc2)cc1Cl` [Compound 21]: 4.3 µM, 0.3 µM, 85 µM and 73%.
For the compound `CN1CCC2(CC1)N=C(SCC(=O)Nc1ccc(F)c(F)c1)C(c1ccc(Cl)cc1)=N2` [Compound 26], the IC50 was determined as 1.1 µM in the series on UM10B cells; 1.3 µM in the series with MCR5 cells (MCR5, MCR5); 2.6 µM with RKO cells. Besides, the viability at 30 µM with cells (24 h, Conc 30 μM) is 88%.
On to `COc1ccc(C2=NC3(CCCCC3)N=C2SCC(=O)Nc2ccc(F)c(Cl)c2)cc1` [Compound 31], for which the IC50 in the series on UM10B cells came out at 7.7 µM; in the series on MCR5 cells (MCR5, MCR5) it was 7.8 µM. The viability at 30 µM with cells (24 h, Conc 30 μM) is 99%.
`COc1ccc(NC(=O)CN2C(=O)C(c3ccc(F)cc3)=NC2(C)C)cc1Cl` [Compound 16]: the concentration for half-maximal inhibition (IC50) with UM10B cells amounted to 38 µM; in the series on MCR5 cells (MCR5) it was 1320 µM; in the series with RKO cells, 43.9 µM. Also, the viability at 30 µM with cells (24 h, Conc 30 μM) turned out to be 122%.
As to `COc1ccc(NC(=O)CN2C(=O)C(c3ccc(C(C)(C)C)cc3)=NC2(C)C)cc1Cl` [Compound 15], the IC50 in the series on UM10B cells was determined as 17.2 µM; in the series with MCR5 cells (MCR5, MCR5), 37 µM; in the series with RKO cells, 50.7 µM. The viability at 30 µM in the series with cells (24 h, Conc 30 μM) is 119%.
The matching figures for `CC1(C)N=C(SCC(=O)Nc2ccc(Cl)c(Cl)c2)C(c2ccc(Cl)c(Cl)c2)=N1` [Compound 18]: 2.5 µM, 25.9 µM, 6.7 µM and 48%.

Values taken from patent US11358965B2, “EGFR dimer disruptors and use of the same” (THE REGENTS OF THE UNIVERSITY OF MICHIGAN, priority 2018, dated 2022).
